The text below walks through data of patent US20260150838A1, “ASCAROSIDE DERIVATIVES” (Ascribe Bioscience Inc., priority 2023, published 2026).

Data set [1] is described as follows: uptake and metabolism of ascaroside amides in alfalfa seedlings (LC-MS of tissue extracts). Type of data set: in vivo. To be noted: for hydrolysis or metabolism by the plant: alfalfa plants, timeframe shown (24 h + 4 h). On the procedure:
Ascaroside analogs 1a, 1b, and 1c were also evaluated in alfalfa seedlings to assess whether plants take up these analogs and whether they are hydrolyzed or metabolized to other ascarosides (specifically to ascr #18 and/or ascr #18 metabolites). The ascr #18 metabolism was evaluated by assaying the plant tissues for the known ascaroside metabolite ascr #9.
(§1) Alfalfa seeds were germinated in the dark on culture plates (10 seeds per plate) containing Gelzan growth medium and were allowed to grow for 3-4 days before treatment. Treatment consisted of flooding the plates with 10 μM aqueous solutions of one of the ascaroside analogs 1a, 1b, or 1c, with ascr #18 (as a positive control), or with plain water as a mock treatment (5 ml total volume, solutions prepared in MQ water). Each experiment was performed in duplicate. After 24 hours, the plates were moved to an illuminated growth chamber for 4 hours before sampling.
Sprouts were collected, thoroughly rinsed with MQ water, dried, flash-frozen, and homogenized. The homogenized tissues were extracted with 100% ethanol and the extracts were analyzed using high-resolution liquid chromatography-mass spectrometry (LC-MS). LC-MS analysis was performed using a Dionex 3000 UPLC coupled with a Thermo Q Exactive high-resolution mass spectrometer equipped with a HESI ion source. To measure ascarosides, samples were chromatographed using an Agilent Zorbax Eclipse column (150 mm×2.1 mm, particle size 1.98 μm) maintained at 40° C. with a 0.5 ml/min flow rate. Solvent A: 0.1% formic acid in water; Solvent B: 0.1% formic acid in acetonitrile. A solvent mixture using 1% B was used for 1.5 min after injection, followed by a linear gradient up to 99% B at 9.5 min, followed by 0.75 min of 99% B, then back to 1% B over 0.5 min, and finally held at 1% B for an additional 1.25 min to re-equilibrate the column (total time: 12 min, with needle washing and file writing: ˜14 min). Mass spectrometer parameters: spray voltage (−3.0 kV or +3.5 kV); capillary temperature 380° C.; probe heater temperature 400° C.; sheath, auxiliary, and sweep gas 60, 20, and 2 AU, respectively—S-Lens RF level: 50, resolution 120,000 at m/z 200, AGC target 3E6. Samples were injected and analyzed in negative electrospray ionization mode with an m/z range of 100-1000. Ascr #18 (C17H32O6) ionizes in negative ion mode as C17H31O6, m/z=331.2126, retention time 6 minutes using the above chromatographic conditions. Samples were also analyzed in positive ionization mode.
(§2) The treatment solutions used to treat the sprouts were also analyzed assayed and the results are shown in the Column of Table 1 labeled “Input” In each case, only the analog, or ascr #18 respectively is detected, indicating the molecules are stable in the treatment solutions.

The nature of data set [2]: LC-MS analysis of the treatment solutions (Input). Type of data set: physicochemical. To be noted: 10 μM aqueous treatment solutions used to treat the sprouts; Rep1/Rep2. On the procedure: as §1
Sprouts were collected, thoroughly rinsed with MQ water, dried, flash-frozen, and homogenized. The homogenized tissues were extracted with 100% ethanol and the extracts were analyzed using high-resolution liquid chromatography-mass spectrometry (LC-MS). […] Samples were injected and analyzed in negative electrospray ionization mode with an m/z range of 100-1000. […] Samples were also analyzed in positive ionization mode.
as §2

For another data set, the system named is Bipolaris sorokiniana. Put plainly: wheat pathogen assay (fungal infection of wheat seedlings). Type of data set: in vivo. To be noted: FIG. 1; for infection symptoms (symptomatic areas relative to the total leaf area) compared to mock: wheat cv. Louise sprayed with 1 μM solution in 0.1% Tween-20, inoculated 48 hours later with Bipolaris sorokiniana spores; for efficacy in reducing fungal infection relative to ascr #18: wheat, 1 μM solutions. The protocol:
The products of Examples 1, 1a to 1, 1c (hereafter referred to as compounds 1a, 1b, and 1c) were evaluated in a wheat pathogen assay to assess the potential of these analogs to prevent crop damage caused by a fungal pathogen. Wheat seeds of cv. Louise were planted in potting soil and grown for two weeks in a growth chamber at 26° C. and 23° C., respectively, with 16 hours of light. After two weeks, the plants were sprayed with a 1 μM solution of ascr #18, or compounds 1a, 1b, or 1c containing 0.1% (v/v) Tween®-20 in water solution, or with a mock solution only containing 0.1% (v/v) Tween®-20. 48 hours after treatment, the wheat plants were inoculated with a Bipolaris sorokiniana spore solution (with 15000 spores/ml) and placed in a dark grow tent with high humidity (>80% RH) for 24 hours at 23° C. Subsequently, the plants were moved to a high humidity environment (>80% RH) at 23° C. and 12 hours of light and dark until fungal infection was visible on the leaves of the mock-treated plants (usually after about four days). Symptoms were evaluated by photographing the infected leaves and processing the images through machine learning image analysis software (Ilastik) to determine the symptomatic areas relative to the total leaf area. […] The infection levels in the treated plants were similar to those treated with 1 μM ascr #18. […] In FIG. 1, error bars depict standard error of the mean for a total n≥35 plants across 4 independent experiments. Outliers were removed with the GraphPad ROUT method, and significance determined by a one-way ANOVA test.

Several values for one entry are separate records, joined by “and”; a condition that tells them apart may be missing. Equal entries are not always repeated.

With `CCN(CC)C(=O)CCCCCCCC[C@@H](C)O[C@@H]1O[C@@H](C)[C@H](O)C[C@H]1O` [compound 1a, (R)-10-(((2R,3R,5R,6S)-3,5-dihydroxy-6-methyltetrahydro-2H-pyran-2-yl)oxy)-N,N-diethylundecanamide], the “hydrolysis or metabolism by the plant” value in data set [1] is on record as “not hydrolyzed or metabolized”. The uptake by plants entry in data set [1] (alfalfa sprouts, 10 μM) was “taken up by plants”. For the same compound, the “half-life in the plant relative to ascr #18” value in data set [1] (alfalfa, inferred from LC-MS data of Table 1) is given as “longer half life than ascr #18 or the other analogs tested”. The “Input (LCMS detector response for diagnostic ion of the analog or ascr#18)” value in data set [2] was 4.03E+06 and 6.78E+06. In the data set on Bipolaris sorokiniana, the “infection symptoms (symptomatic areas relative to the total leaf area) compared to mock” value is “reduced infection symptoms” and the “efficacy in reducing fungal infection relative to ascr #18” value is “comparable to that of ascr #18”.

For the compound `C[C@H](CCCCCCCCC(N)=O)O[C@@H]1O[C@@H](C)[C@H](O)C[C@H]1O` [1c, (R)-10-(((2R,3R,5R,6S)-3,5-dihydroxy-6-methyltetrahydro-2H-pyran-2-yl)oxy)-undecanamide], the “hydrolysis or metabolism by the plant” value in data set [1] was “hydrolyzed or metabolized by the plant”. Also, in the data set with Bipolaris sorokiniana, the “infection symptoms (symptomatic areas relative to the total leaf area) compared to mock” value is on record as “reduced infection symptoms” and the “efficacy in reducing fungal infection relative to ascr #18” value is reported as “comparable to that of ascr #18”.

Turning to `C[C@H](CCCCCCCCC(=O)NCCO)O[C@@H]1O[C@@H](C)[C@H](O)C[C@H]1O` [1b, (R)-10-(((2R,3R,5R,6S)-3,5-dihydroxy-6-methyltetrahydro-2H-pyran-2-yl)oxy)-N-(2-hydroxyethyl)-undecanamide], the “hydrolysis or metabolism by the plant” value in data set [1] is “hydrolyzed or metabolized by the plant”. Also, in the data set on Bipolaris sorokiniana, the “infection symptoms (symptomatic areas relative to the total leaf area) compared to mock” value was “reduced infection symptoms” and the “efficacy in reducing fungal infection relative to ascr #18” value is on record as “comparable to that of ascr #18”.
